System: 217524-143-R1-J4-PDC spheroids with HUVEC/MSC, viability
Test: Anticancer human tumor 217524-143-R1-J4-PDC patient-derived pancreatic carcinoma cell line growth inhibition [CLK]
Details: for IC50: curve of first compound; for viability, T/C: stronger effect = lower value
In short: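 Multi-cell-type spheroids combined patient-derived tumor cells with HUVEC endothelial cells and human mesenchymal stem cells. Paired agents were dosed in half-log steps down from about clinical Cmax, or from 10 microM where Cmax was unknown.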
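Note: spheroids exposed to agents for seven days before reading.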
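Throughout, for viability, T/C: 100% = DMSO vehicle control viability.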

Q: Which IC50 (second compound 0.0316 µM) does the source give for CC(C)CC(NC(=O)C(Cc1ccccc1)NC(=O)c1cnccn1)B(O)O (centres undefined) + CNC(=O)c1ccc(Nc2nc(OC3CCCC3)c3c(-c4ccc5nc(C)oc5c4)c[nH]c3n2)c(OC)c1 here?
A: Its IC50 is 5.06 nM.

Q: And the IC50 (second compound 0.1 µM)?
A: Its IC50 is 3.04 nM.

Q: And the IC50 (second compound 0.316 µM)?
A: Its IC50 is < 0.949 nM.

Q: What about the IC50 (second compound 1 µM) of the same compound?
A: The IC50 was < 0.949 nM.

Q: And the IC50 (second compound 3.16 µM)?
A: Its IC50 is < 0.949 nM.

Q: And the IC50 (second compound 10 µM)?
A: The IC50 was < 0.949 nM.

Q: And the viability, T/C (second compound 0.0316 µM, first compound 0.000949 µM)?
A: The viability, T/C was 90.4%.

Q: And the viability, T/C (second compound 0.0316 µM, first compound 0.003 µM)?
A: Its viability, T/C is 71.8%.

Q: What about the viability, T/C (second compound 0.0316 µM, first compound 0.00949 µM) of the same compound?
A: The viability, T/C was 23.7%.

Q: And the viability, T/C (second compound 0.0316 µM, first compound 0.03 µM)?
A: The viability, T/C was 6.76%.

Q: What about the viability, T/C (second compound 0.0316 µM, first compound 0.0949 µM) of the same compound?
A: Its viability, T/C is 3.97%.

Q: And the viability, T/C (second compound 0.0316 µM, first compound 0.3 µM)?
A: Its viability, T/C is 1.1%.

Q: And the viability, T/C (second compound 0.1 µM, first compound 0.000949 µM)?
A: Its viability, T/C is 45.6%.

Q: And the viability, T/C (second compound 0.1 µM, first compound 0.003 µM)?
A: The viability, T/C was 55.1%.

Q: What about the viability, T/C (second compound 0.1 µM, first compound 0.00949 µM) of the same compound?
A: The viability, T/C was 17.5%.

Q: What about the viability, T/C (second compound 0.1 µM, first compound 0.03 µM) of the same compound?
A: The viability, T/C was 5.06%.

Q: And the viability, T/C (second compound 0.1 µM, first compound 0.0949 µM)?
A: Its viability, T/C is 2.97%.

Q: And the viability, T/C (second compound 0.1 µM, first compound 0.3 µM)?
A: Its viability, T/C is 1.89%.

Q: What about the viability, T/C (second compound 0.316 µM, first compound 0.000949 µM) of the same compound?
A: The viability, T/C was 40.3%.

Q: And the viability, T/C (second compound 0.316 µM, first compound 0.003 µM)?
A: The viability, T/C was 47.1%.

Q: What about the viability, T/C (second compound 0.316 µM, first compound 0.00949 µM) of the same compound?
A: Its viability, T/C is 18.7%.

Q: And the viability, T/C (second compound 0.316 µM, first compound 0.03 µM)?
A: Its viability, T/C is 4.6%.

Q: And the viability, T/C (second compound 0.316 µM, first compound 0.0949 µM)?
A: Its viability, T/C is 3.43%.

Q: What about the viability, T/C (second compound 0.316 µM, first compound 0.3 µM) of the same compound?
A: Its viability, T/C is 2.04%.

Q: What about the viability, T/C (second compound 1 µM, first compound 0.000949 µM) of the same compound?
A: The viability, T/C was 29.1%.

Q: And the viability, T/C (second compound 1 µM, first compound 0.003 µM)?
A: The viability, T/C was 38.5%.

Q: And the viability, T/C (second compound 1 µM, first compound 0.00949 µM)?
A: The viability, T/C was 7.88%.

Q: And the viability, T/C (second compound 1 µM, first compound 0.03 µM)?
A: The viability, T/C was 2.84%.

Q: What about the viability, T/C (second compound 1 µM, first compound 0.0949 µM) of the same compound?
A: Its viability, T/C is 2.06%.

Q: And the viability, T/C (second compound 1 µM, first compound 0.3 µM)?
A: Its viability, T/C is 1.44%.

Q: What about the viability, T/C (second compound 3.16 µM, first compound 0.000949 µM) of the same compound?
A: The viability, T/C was 25.7%.

Q: What about the viability, T/C (second compound 3.16 µM, first compound 0.003 µM) of the same compound?
A: The viability, T/C was 41.2%.

Q: And the viability, T/C (second compound 3.16 µM, first compound 0.00949 µM)?
A: The viability, T/C was 5.46%.

Q: And the viability, T/C (second compound 3.16 µM, first compound 0.03 µM)?
A: The viability, T/C was 2.33%.

Q: And the viability, T/C (second compound 3.16 µM, first compound 0.0949 µM)?
A: Its viability, T/C is 1.76%.

Q: What about the viability, T/C (second compound 3.16 µM, first compound 0.3 µM) of the same compound?
A: Its viability, T/C is 1.27%.

Q: What about the viability, T/C (second compound 10 µM, first compound 0.000949 µM) of the same compound?
A: Its viability, T/C is 24.6%.

Q: And the viability, T/C (second compound 10 µM, first compound 0.003 µM)?
A: Its viability, T/C is 34.8%.

Q: What about the viability, T/C (second compound 10 µM, first compound 0.00949 µM) of the same compound?
A: Its viability, T/C is 6.06%.

Q: And the viability, T/C (second compound 10 µM, first compound 0.03 µM)?
A: The viability, T/C was 2.66%.

Q: And the viability, T/C (second compound 10 µM, first compound 0.0949 µM)?
A: Its viability, T/C is 1.59%.

Q: What about the viability, T/C (second compound 10 µM, first compound 0.3 µM) of the same compound?
A: The viability, T/C was 0.75%.

Q: Which IC50 (second compound 0.0316 µM) does the source give for O=C(c1cc(Cc2n[nH]c(=O)c3ccccc23)ccc1F)N1CCN(C(=O)C2CC2)CC1 + CNC(=O)c1ccc(Nc2nc(OC3CCCC3)c3c(-c4ccc5nc(C)oc5c4)c[nH]c3n2)c(OC)c1 here?
A: The IC50 was > 10000 nM.

Q: And the IC50 (second compound 0.1 µM)?
A: Its IC50 is < 31.6 nM.

Q: What about the IC50 (second compound 0.316 µM) of the same compound?
A: Its IC50 is < 31.6 nM.

Q: What about the IC50 (second compound 1 µM) of the same compound?
A: The IC50 was < 31.6 nM.

Q: And the IC50 (second compound 3.16 µM)?
A: The IC50 was < 31.6 nM.

Q: And the IC50 (second compound 10 µM)?
A: The IC50 was < 31.6 nM.

Q: And the viability, T/C (second compound 0.0316 µM, first compound 0.0316 µM)?
A: Its viability, T/C is 83.2%.

Q: And the viability, T/C (second compound 0.0316 µM, first compound 0.1 µM)?
A: The viability, T/C was 82.8%.

Q: What about the viability, T/C (second compound 0.0316 µM, first compound 0.316 µM) of the same compound?
A: The viability, T/C was 95.6%.

Q: What about the viability, T/C (second compound 0.0316 µM, first compound 1 µM) of the same compound?
A: Its viability, T/C is 115%.

Q: And the viability, T/C (second compound 0.0316 µM, first compound 3.16 µM)?
A: The viability, T/C was 109%.

Q: What about the viability, T/C (second compound 0.0316 µM, first compound 10 µM) of the same compound?
A: The viability, T/C was 78.5%.

Q: What about the viability, T/C (second compound 0.1 µM, first compound 0.0316 µM) of the same compound?
A: Its viability, T/C is 44.3%.

Q: What about the viability, T/C (second compound 0.1 µM, first compound 0.1 µM) of the same compound?
A: Its viability, T/C is 40.1%.

Q: And the viability, T/C (second compound 0.1 µM, first compound 0.316 µM)?
A: Its viability, T/C is 45.6%.

Q: What about the viability, T/C (second compound 0.1 µM, first compound 1 µM) of the same compound?
A: The viability, T/C was 44.1%.

Q: And the viability, T/C (second compound 0.1 µM, first compound 3.16 µM)?
A: The viability, T/C was 46.2%.

Q: What about the viability, T/C (second compound 0.1 µM, first compound 10 µM) of the same compound?
A: Its viability, T/C is 46.3%.

Q: And the viability, T/C (second compound 0.316 µM, first compound 0.0316 µM)?
A: Its viability, T/C is 37.4%.

Q: What about the viability, T/C (second compound 0.316 µM, first compound 0.1 µM) of the same compound?
A: Its viability, T/C is 42.7%.

Q: What about the viability, T/C (second compound 0.316 µM, first compound 0.316 µM) of the same compound?
A: Its viability, T/C is 35.4%.

Q: And the viability, T/C (second compound 0.316 µM, first compound 1 µM)?
A: The viability, T/C was 36.1%.

Q: What about the viability, T/C (second compound 0.316 µM, first compound 3.16 µM) of the same compound?
A: Its viability, T/C is 38.7%.

Q: What about the viability, T/C (second compound 0.316 µM, first compound 10 µM) of the same compound?
A: Its viability, T/C is 51.8%.

Q: What about the viability, T/C (second compound 1 µM, first compound 0.0316 µM) of the same compound?
A: Its viability, T/C is 29.4%.

Q: And the viability, T/C (second compound 1 µM, first compound 0.1 µM)?
A: The viability, T/C was 30.1%.

Q: And the viability, T/C (second compound 1 µM, first compound 0.316 µM)?
A: Its viability, T/C is 28%.

Q: What about the viability, T/C (second compound 1 µM, first compound 1 µM) of the same compound?
A: Its viability, T/C is 32.3%.

Q: What about the viability, T/C (second compound 1 µM, first compound 3.16 µM) of the same compound?
A: The viability, T/C was 24.2%.

Q: What about the viability, T/C (second compound 1 µM, first compound 10 µM) of the same compound?
A: The viability, T/C was 25.6%.

Q: And the viability, T/C (second compound 3.16 µM, first compound 0.0316 µM)?
A: The viability, T/C was 27%.

Q: And the viability, T/C (second compound 3.16 µM, first compound 0.1 µM)?
A: The viability, T/C was 23.7%.

Q: What about the viability, T/C (second compound 3.16 µM, first compound 0.316 µM) of the same compound?
A: Its viability, T/C is 27.8%.

Q: And the viability, T/C (second compound 3.16 µM, first compound 1 µM)?
A: Its viability, T/C is 26.5%.

Q: What about the viability, T/C (second compound 3.16 µM, first compound 3.16 µM) of the same compound?
A: Its viability, T/C is 28.4%.

Q: What about the viability, T/C (second compound 3.16 µM, first compound 10 µM) of the same compound?
A: The viability, T/C was 29.4%.

Q: What about the viability, T/C (second compound 10 µM, first compound 0.0316 µM) of the same compound?
A: Its viability, T/C is 24.7%.

Q: What about the viability, T/C (second compound 10 µM, first compound 0.1 µM) of the same compound?
A: Its viability, T/C is 29.3%.

Q: And the viability, T/C (second compound 10 µM, first compound 0.316 µM)?
A: Its viability, T/C is 23.4%.

Q: And the viability, T/C (second compound 10 µM, first compound 1 µM)?
A: The viability, T/C was 24.6%.

Q: What about the viability, T/C (second compound 10 µM, first compound 3.16 µM) of the same compound?
A: Its viability, T/C is 30.7%.

Q: What about the viability, T/C (second compound 10 µM, first compound 10 µM) of the same compound?
A: Its viability, T/C is 24.7%.
